{
  "source": "patent US20220411422A1",
  "about": "“ERBB RECEPTOR INHIBITORS” (Dizal (Jiangsu) Pharmaceutical Co., Ltd., priority 2018, published 2022)",
  "key": {"BT474 cells": {"test_system": "BT474 cells", "test": "BT474 anti-proliferation assay, MTS", "assay_type": "cell-based", "conditions": "Homo sapiens, BT-474, 72 h, read-out: HER2WT Amplification BT474 GI50", "description": "A compound's activity of selective inhibition for HER2 wild type amplification can be evaluated with BT474 cell line (ATCC® HTB-20™). The cell line expressed phosphorylated HER2 protein and its proliferation depended on the amplified gene, which could be used for in vitro PD and anti-proliferation assays.\nThe anti-proliferation activity of compounds were determined as following procedure: The BT474 cells were sorted in 384 well plates with the DMEM medium containing 10% FBS and […] overnight and then dosed with tested compounds at a series of concentrations (30 μM, 10 μM, 3 μM, 1 μM, 0.3 μM, 0.1 μM, 0.03 μM, 0.01 μM, 0.001 μM) on next day. Meanwhile, another cells plate was prepared for measuring G0 value on next day. The dosed plates were incubate for 72 h at 37° C. with 5% CO2 and the number of viable cells in each well of G0 or dosed plates were measured by MTS (CellTiter 96® AQueous One Solution Cell Proliferation Assay, Promega) endpoint. This assay is a colorimetric method for determining the number viable cells in the proliferation assay. Detection reagents (5 μl) was dispensed into per well, and the plates were incubated for 2 hrs at room temperature. Then, absorbance at 490 nm and 650 nm (reference wavelength) in each well was measured using the safile II. (Tecan). […]"}, "[1]": {"test": "Blood brain barrier penetration assay in monkeys", "assay_type": "in vivo", "conditions": "CSF, oral; Table 5; monkey", "description": "In vitro blood, plasma and brain binding assay was carried out with equilibrium dialysis device. Diluted blood (1:1 with DPBS pH7.4), EDTA-anticoagulated plasma, and brain homogenate (1:3 with DPBS pH7.4) were spiked with 5 μM test compound (in triplicate) and dialyzed against equal volume of 150 μL 100 mM PBS buffer (pH7.4) at 37° C. for appropriate equilibration time in a slowly rotated plate. At the end of incubation, a 50 μL aliquot from the receiver side and a 5 μL from the donor chamber were taken. The 5 μL sample was further diluted with 45 μL of blank blood, plasma or brain homogenate. […] After centrifuging at 4000 rpm for 20 min, supernatant was diluted with 0.1% formic acid aqueous solution and analyzed for LC/MS/MS (API 4000, Applied Biosystems, Foster City). Unbound fraction (fu) of test compound were calculated by the ratio of the buffer side response to the brain homogenate/plasma/blood side response, and unbound fraction (fu,bl, fu,pl and fu,br) of test compound in non-diluted blood and tissue were calculated from measured fu in homogenate and diluted blood with the following equation: fu,bl (fu,br)=(1/D)/[(1/fu−1)+1/D)]. […]\nTotal brain levels, expressed as brain/blood ratio (Kp,brain) were measured by AUC(brain)/AUC(blood or plasma) in rodents after oral administration. […]\nKp,uu brain and Kp,uu CSF was calculated by the following equation: […]"}, "[2]": {"test_system": "BT474 SC, BM and LM xenograft models", "test": "In vivo anti-tumor potency in SC, BM and LM xenograft mouse models"}, "pHER2 in tumor tissue": {"target": "T1, pHER2 in tumor tissue (Homo sapiens, UniProt P04626)", "T1 construct": "The SC, BM and LM models with HER2 overexpression; from tissue; host or cells: BT474cl subcutaneous xenograft tumour in mice", "T1 sequence (P04626 23-1255)": "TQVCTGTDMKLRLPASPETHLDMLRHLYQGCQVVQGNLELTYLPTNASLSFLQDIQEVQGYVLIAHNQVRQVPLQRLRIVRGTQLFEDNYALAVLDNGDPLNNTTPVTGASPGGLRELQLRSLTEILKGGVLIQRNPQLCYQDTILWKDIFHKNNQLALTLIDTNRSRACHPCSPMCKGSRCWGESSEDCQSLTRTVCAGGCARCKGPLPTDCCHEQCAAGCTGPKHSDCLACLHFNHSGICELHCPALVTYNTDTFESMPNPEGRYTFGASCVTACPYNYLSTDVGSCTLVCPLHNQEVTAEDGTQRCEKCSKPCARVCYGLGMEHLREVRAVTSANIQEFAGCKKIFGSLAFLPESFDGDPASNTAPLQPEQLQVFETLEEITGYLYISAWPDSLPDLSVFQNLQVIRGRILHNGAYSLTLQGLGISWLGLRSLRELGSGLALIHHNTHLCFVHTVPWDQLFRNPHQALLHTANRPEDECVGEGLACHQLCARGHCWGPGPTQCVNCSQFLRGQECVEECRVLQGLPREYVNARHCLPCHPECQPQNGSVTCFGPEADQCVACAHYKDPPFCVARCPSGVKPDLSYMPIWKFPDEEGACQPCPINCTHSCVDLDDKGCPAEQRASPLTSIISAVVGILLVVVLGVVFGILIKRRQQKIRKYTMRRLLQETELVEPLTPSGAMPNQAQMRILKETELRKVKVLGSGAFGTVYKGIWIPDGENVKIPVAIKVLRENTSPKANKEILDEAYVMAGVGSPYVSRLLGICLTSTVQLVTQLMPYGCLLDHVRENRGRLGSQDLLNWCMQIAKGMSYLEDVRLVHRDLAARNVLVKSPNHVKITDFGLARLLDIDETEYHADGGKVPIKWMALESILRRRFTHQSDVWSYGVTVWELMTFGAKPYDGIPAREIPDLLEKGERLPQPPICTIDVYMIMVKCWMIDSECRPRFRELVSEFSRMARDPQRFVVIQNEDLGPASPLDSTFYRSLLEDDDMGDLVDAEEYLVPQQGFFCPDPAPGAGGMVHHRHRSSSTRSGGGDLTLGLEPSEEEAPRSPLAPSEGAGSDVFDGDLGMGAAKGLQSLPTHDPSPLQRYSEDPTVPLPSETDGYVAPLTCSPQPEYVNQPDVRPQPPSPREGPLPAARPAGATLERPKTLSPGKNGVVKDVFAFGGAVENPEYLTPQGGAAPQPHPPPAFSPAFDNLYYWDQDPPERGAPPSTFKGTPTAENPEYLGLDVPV", "test": "PK/PD relationship in BT474cl SC model", "assay_type": "in vivo, mouse", "description": "The SC, BM and LM models with HER2 overexpression were treated with the Compound 6 at dosages of 25 mg/kg, 50 mg/kg, 100 mg/kg and 150 mg/kg. […] Moreover, the Compound 6 at dosages of 6.25 mg/kg, Capecitabine (400 mg/kg), T-DM1 (15 mg/kg), Compound 6 (6.25 mg/kg) in combination with Capecitabine (400 mg/kg) or T-DM1 (15 mg/kg) were used to treat the SC, and BM models with HER2 overexpression to check the tumor regression effect of Compound 6 in combination with other anti-cancer agent. […] Moreover, the PK and PD of Compound 6 in BT474cl SC model were tested."}},
  "note": "“Also recorded” adds a separate entry of the source.",
  "data": [
    {"smiles": "COc1cc(O[C@H]2CCN(C)CC2(F)F)c2c(Nc3ccc(Oc4ccn5ncnc5c4)c(C)c3)ncnc2c1", "note": "(single isomer, unassigned) [Compound 6]", "values": [
      {"measurement": "GI50", "setting": "BT474 cells", "result": "~0.02", "unit": "µM"},
      {"measurement": "Kp uu", "setting": "[1]", "result": 4.1},
      {"measurement": "anti-tumor activity compared to Tucatinib, Neratinib and Pyrotinib", "setting": "[2]; BM and LM models", "result": "superior to Tucatinib, Neratinib and Pyrotinib"},
      {"measurement": "anti-tumor activity, monotherapy", "setting": "[2]; BT474 SC, BM and LM xenograft models, 25-150 mg/kg", "result": "potent anti-tumor activity; also recorded: profound tumor regression"},
      {"measurement": "anti-tumor activity compared to Tucatinib, Neratinib and Pyrotinib", "setting": "[2]; SC model", "result": "comparable to them"},
      {"measurement": "relationship between plasma concentration and pHER2 inhibition in tumor tissue", "setting": "pHER2 in tumor tissue", "result": "positive correlation"}
    ]}
  ]
}
